Key:
[1] = tested on: Rat-1 cells; assay: DNA synthesis ([3H]-thymidine incorporation) in EGF-stimulated Rat-1 cells; assay type: cell-based; details: 40 ng/ml EGF, 20 μg/ml coating, FIG. 6
Protocol: (§1) Rat-1 cells were plated at 1×10^5 cells/well on 24-well plates that had been coated for 12 hours either with 20 μg/ml of vitronectin or 20 μg/ml of type I collagen. Cells were incubated for 36 hours in Dulbecco's modified Eagle's medium containing 0.1% bovine serum albumin followed by addition of buffer or 40 ng/ml EGF (Boehringer Mannheim). After 15 hours, the cells were pulse-labeled with 1 μCi/ml [^3 H]-thymidine (specific activity 6.7 Ci/mmol, DuPont NEN) for 3 hours and thymidine incorporation into DNA was determined by liquid scintillation counting.
After being serum-starved, the cells were treated with buffer only (samples 1 and 2) or with EGF (samples 3 and 4). Data points are the average of triplicate samples.

[2] = tested on: NRK cells; assay: DNA synthesis in IGF-1-treated NRK cells on vitronectin, collagen or laminin; assay type: cell-based; details: data not shown
[3] = tested on: human foreskin fibroblasts; assay: DNA synthesis ([3H]-thymidine incorporation) in PDGF-stimulated human foreskin fibroblasts; assay type: cell-based; details: 40 ng/ml PDGF-BB, 20 μg/ml coating, FIG. 5 column 3 vs 4
Protocol: as §1, with “Human foreskin fibroblasts (Coriell) were” for “Rat-1 cells were”, “vitronectin of” for “vitronectin or”, “ng/ml PDGF-BB” for “ng/ml EGF”
Cells were serum-starved and treated with buffer only (samples 1 and 2) or with PDGF (samples 3 and 4). Data points are the average of duplicate samples.

[4] = tested on: FG-B cells (αv β3 integrin positive human pancreatic carcinoma cells); assay: DNA synthesis ([3H]-thymidine incorporation) in insulin-stimulated FG-B cells on vitronectin or type I collagen; assay type: cell-based; details: 100 mM insulin, plates coated with 10 μg/ml vitronectin or type I collagen, FIG. 4 columns 9, 10
Protocol: (§2) FG-B (columns 1, 2, 5, 6, 9, and 10) and FG-C cells (columns 3, 4, 7, 8, 11, and 12) were plated at 1×10^5 cells/well on 24-well plates that had been coated either with vitronectin (dark column) or type I collagen (open column). Plates were coated with 10 μg/ml of either vitronectin or type I collagen for 12 hours followed by blocking with 0.5% bovine serum albumin for 2 hours. Cells were incubated for 36 hours in DMEM containing 10% FCS (columns 1 to 4), or in DMEM containing 0.1% BSA followed by addition of buffer (columns 5 to 8) or 100 mM insulin (columns 9 to 12). FCS is used as a control because it provides maximal stimulation owing to the presence of high levels of growth factors and adhesion proteins.
(§3) After 15 hours, the cells were pulse-labeled with 1 μCi/ml [^3 H]-thymidine (specific activity 6.7 Ci/mmol, DuPont NEN) for 3 hours and thymidine incorporation into DNA was determined by trichloroacetic acid precipitation and liquid scintillation counting. Error bars indicate the standard error of triplicate determinations.

[5] = tested on: FG-C cells (αv β3 integrin negative human pancreatic carcinoma cells); assay: DNA synthesis ([3H]-thymidine incorporation) in insulin-stimulated FG-C cells on vitronectin or type I collagen; assay type: cell-based; details: lack αv β3, FIG. 4 columns 3, 4, 7, 8, 11, 12
Protocol: as §2, §3

[6] = tested on: HIRcB, NIH 3T3, NRK, HT29, UCLA-P3 and Panc-1 cells; assay: Insulin responsiveness in a panel of αv β3 and αv β5 expressing cell lines on different substrates; assay type: cell-based; details: panel of six cell lines
Excerpt: A correlation between αv β3 expression and increased insulin responsiveness on vitronectin was also found in a panel of three cell lines expressing αv β3 and three lines expressing only αv β5. […] All the cell lines attached equally to vitronectin. NRK, HT29, UCLA-P3 and Panc-1 attached also to laminin and collagen, and HIRcB and NIH 3T3 cells attached to laminin. The attachment to laminin and collagen was inhibited by anti-β1 antibodies (Vuori and Ruoslahti, unpublished data, and Hayman et al., J. Cell Biol. 100:1948 (1985); Hayashi et al., J. Cell biol. 110:175 (1990); Schreiner et al., Clin. Expl. Metastasis 9:163 (1991); and Cheresh et al., supra).

[7] = tested on: αv β3 integrin-IRS-1 association; assay: Association of IRS-1 with the vitronectin receptor (αv β3) in insulin-stimulated HIRcB cells, immunoprecipitation/immunoblot densitometry; assay type: cell-based, rat
Protocol: HIRcB cells were grown to 80% confluency in Dulbeccos's modified Eagle's medium (DMEM) containing 10% fetal calf serum (FCS) and 500 nM methotrexate, incubated in DMEM +0.1% BSA for 36 hours, and either left quiescent, or stimulated with 100 nM insulin (Sigma) for 3 minutes. Cell monolayers were rinsed with PBS, frozen with liquid nitrogen and lysed in NP-40 lysis buffer (20 mM Tris-HCl (pH 8.0), 1% NP-40, 10% glycerol, 137 mM NaCl, 1 mM CaCl2, 1 mM MgCl2, 1 mM sodium orthovanadate, 50 mM sodium fluoride, 1 mM phenylmethylsulfonylfluoride, 0.1 U/ml aprotinin, 10 μg/ml pepstatin A). HIRcB cells were immunoprecipitated with anti-αv β3 237 according to Suzuki et al., PNAS USA 83:8614 (1986), as shown in lanes 1 and 3, 237 preimmune serum in lane 2, anti-αv β3 1343 in lane 4, anti-αv β3 in lane 5, anti-α5 β1488 in lane 6 (made according to Argraves et al., J. Cell Biol. 105:1183 (1987)) and an unrelated rabbit antiserum (lane 7). Anti-αv β3 1343 was obtained from a person (Telios Pharmaceuticals, Inc.) and anti-αIIb β3 from Dr. Elisabetta Dejana (Mario Negri Institute, Milan, Italy). Three anti-α5 β1 antibodies and six unrelated polyclonal antibodies tested gave results similar to those shown in lanes 6 and 7. […] In lane 8, anti-αv β3 237 immunocomplexes from insulin-treated cells were dissociated and reprecipitated with the same antibody as follows. […]

With “EGF: Epidermal growth factor (Boehringer Mannheim) (NSDSECPLSHDGYCLHDGVCMYIEALDKYACNCVVGYIGERCQYRDLKWWELR; UniProt P01133 971-1023, looked up)” the “DNA synthesis response to EGF on vitronectin versus collagen” value [1] was “same response”.
“IGF-1: insulin-like growth factor (IGF-1), signals through IRS-1” was tested, and the “higher DNA synthesis in response to IGF-1 when plated on vitronectin than on collagen or laminin” value [2] was “about 2.3 fold”.
With “PDGF: platelet derived growth factor, PDGF-BB (Boehringer Mannheim)” the “higher DNA synthesis in response to PDGF when plated on vitronectin than on collagen” value [3] was “about 2.3 fold”.
With insulin the “higher DNA synthesis in response to insulin when plated on vitronectin than on collagen” value [4] was “about 2.5 fold”, the “difference in the DNA synthesis response on vitronectin and collagen” value [5] was “no difference” and the “effect of attachment to laminin on insulin responsiveness” value [6] was “did not increase”. The “time of insulin stimulation to maximal IRS-1-vitronectin receptor association” value ([7]; HIRcB cells) was 3 min and the “IRS-1 complexed with the vitronectin receptor” value ([7]; insulin-stimulated HIRcB cells, share of IRS-1 of total cell lysate) was “Five to eight”.

— patent publication US5654267A, “Cooperative combinations of ligands contained within a matrix” (La Jolla Cancer Research Center, priority 1994, dated 1997)
